Data: patent US5552267A, “Solution for prolonged organ preservation” (priority 1994, dated 1996)

Legend:
pulmonary vasculature = conditions: in vivo; cited from earlier work
heart = test: heterotopic rat cardiac transplant, cAMP series, graft survival/score; assay type: in vivo, rat (male Sprague-Dawley)
Text: Preservation solutions included lactated Ringer's (LR) solution Baxter, Edison, N.J.), or LR supplemented with rolipram ZK 62 711, Schering AG, Berlin, Germany), indolidan LY195115, Lilly Research Laboratories, Indianapolis, Ind.), sodium butyrate, 8-bromoadenosine, 8-bromoadenosine 3',5'monophosphate (8-Br-cAMP; Sigma Chemical Co., St. Louis, Mo.), the Rp -isomer of adenosine 3',5'monophosphorothioate (Rp -cAMPS; Biolog, La Jolla, Calif.), the Sp isomer of adenosine 3',5'monophosphorothioate (Sp -cAMPS; Biolog), and N^6,O^2' -dibutyryl adenosine 3',5'monophosphate sodium (db-cAMP; Aldrich, Milwaukee, Wis.). Components were combined within 4 hrs of donor cardiectomy, and preservation solutions were kept at 4° C. University of Wisconsin solution (UW)(2-4 was purchased from Dupont (Wilmington, Del.).
Donor Cardiectomy. Male Sprague-Dawley rats (350-450 grams, Camm Research, Wayne, N.J.) were anesthetized, heparinized (1000 units of heparin given intravenously), and the donor heart removed in the following manner; a midline incision was performed, followed by rapid cardioplegic arrest with 5 ml of cold (4° C.), high potassium solution (NACl, 0.9%, and KCl, 40 mEq/L). The heart was maintained at 4° C. throughout the harvest procedure by the application of a cold saline soaked gauze over its surface. […] The aortic root was flushed with ≈15 ml of the cold preservation solution until the coronary arteries became visibly clear, and the heart remained in the cold storage solution for the indicated duration until the time of transplantation.
Heterotopic Transplant. The same breed/size of rat was used, and similarly anesthetized, but not given heparin. A midline abdominal incision was made, and the infrarenal aorta and vena cava were occluded with a side-biting vascular clamp and longitudinal incisions were made in each vessel. The donor heart was removed from the preservation solution and kept moist with saline-soaked gauze. […] Blood flow was restored to the graft (by removal of the clamp) exactly one hour after removal from the cold preservation solution. […] Ten minutes after removal of the cross-clamp, an electrocardiogram was taken (Grass Polygraph, Quincy, Mass.) and the heart was judged by the same blinded investigators throughout based on the presence/absence of regular contractions and a transplant score (0-5, worst-best, respectively) employing the following criteria: contraction (poor=0, average=1, vigorous=2), tissue turgor (hard=0, average=1, soft=2), and color (dusky=0, pink=1). […] The heterotopic cardiac transplant experiments performed in these studies were done by a single surgeon after establishment of this model and acquisition of surgical expertise, with control and experimental groups interspersed throughout the study period to prevent a time-dependent bias pertaining to surgical skills.
Statistics. Graft survival data and transplant scores were analyzed using the Kruskal-Wallis non-parametric analysis of variance (38). Comparisons of individual treatments were performed using the procedure described by Dunn (39). In addition, the effect of db-cAMP on the time-course of graft failure was quantified by multivariate logistic regression. Graft myeloperoxidase data, microsphere data, and cAMP/adenylate cyclase/phosphodiesterase data from experiments with cultured vascular smooth muscle cells were analyzed by t-tests when 2 treatments were performed or by analysis of variance when 3 or more treatments were performed. In the latter case, post-hoc comparison of treatment groups were tested using Tukey's procedure. Values are expressed as means ±SEM, with a p <0.05 considered statistically significant.

[1] = test system: cardiac graft vasculature; test: graft blood flow by latex microspheres, cAMP series; assay type: in vivo, rat
Experimental: Perfusion of Donor Graft. Ten minutes after restoration of blood flow, a suspension of latex microspheres (0.5 ml of 10 μm diameter microspheres at a final concentration in 10^6 /ml in phosphate-buffered saline containing Tween 80, 0.05%) (E-Z Trac, Los Angeles, Calif.) was injected over 30 seconds into the donor aortic root. After one minute, the heart was rapidly excised, rinsed free of intracavitary and surface blood, and the atria and great vessels were removed. The ventricles were cut into pieces, each piece weighed, and then digested by alkaline hydrolysis, centrifuged and washed according to the manufacturer's instructions. Beads in each piece were then counted in an Improved Neubauer hemocytometer VWR Scientific, Piscataway, N.J.). Results are expressed as number of spheres per (40X) field per gram of ventricle. A minimum of ten fields were counted and the mean ± SEM is reported.

[2] = test system: neutrophil infiltration of cardiac graft; test: graft myeloperoxidase activity/histology (leukocyte infiltration), cAMP series; assay type: in vivo, rat
Experimental: Myeloperoxidase assay/histology. Ten minutes following restoration of blood flow, transplanted hearts were excised and the aortic root was flushed for 5 minutes (rate of 2 ml/minute controlled by roller pump) with normal saline (Baxter, Edison, N.J.), the atria and great vessels were removed, and intracavitary blood was evacuated. Remaining ventricular pieces were weighed, and homogenized in phosphate buffer (50 mM; pH 7.4, 5 ml/gm of tissue) containing hexadecyltrimethylammonium bromide (0.5%; HTAB, [Sigma]) and frozen at -80° C. The myeloperoxidase assay was performed, as described (29), by thawing the sample, centrifuging at 40,000 g for 10 minutes at 4° C., and decanting the supernatant, which was assayed for myeloperoxidase activity using standard chromogenic spectrophotometric technique: test sample (0.1 ml) was added to phosphate buffer (50 mM; pH 6.0) containing O-dianisidine dihydrochloride (Sigma), hydrogen peroxide (0.0005%), and change in absorbance at 460 nm was measured over 5 min (increase in OD was linear over this time interval). For histologic study, cardiac graft samples were fixed in an ascending series of aldehydes, embedded, sectioned, and stained with hematoxylin and eosin.

[3] = in vitro toxicity to endothelial cells; assay type: cell-based; conditions: data not shown, read-out: concentration toxic to endothelial cells
lung [4] = test: orthotopic rat left lung transplantation, nitroglycerin series; assay type: in vivo, rat (male Lewis)
lung [5] = conditions: in vivo; cited from earlier work
vascular smooth muscle = conditions: cited from earlier work

For `CCCOc1ccccc1-c1nc2[nH]nnc2c(=O)[nH]1` [M&B 22948, 2-o-propoxyphenyl-8-azapurin-6-one], the “effect on vasodilators” value (pulmonary vasculature) is given as “augments the pulmonary vasodilating effects of NO(cGMP)-dependent vasodilators, but not those of a cAMP-dependent vasodilator”.
For `CCCC(=O)Nc1ncnc2c1ncn2[C@@H]1O[C@@H]2COP(=O)(O)O[C@H]2[C@H]1OC(=O)CCC` [db-cAMP, N^6, O^2' -dibutyryl adenosine 3',5'monophosphate], the “concentration for optimal/maximal preservation” value (heart; 12 h in LR) was 1 to 2 mM, the graft survival (heart; 12 h preservation in LR) was 90% and the “graft blood flow” value ([1]; 12 h in LR, db-cAMP 2 mM vs LR alone) was “significant increase in blood flow”. For the same molecule, the “fold increase in graft blood flow” value ([1]; vs without db-cAMP) was 5.5 fold, the “fold decrease in neutrophil infiltration / myeloperoxidase activity” value ([2]; 12 h, db-cAMP 2 mM in LR vs LR alone) was 3.2 fold and the “PMNs in blood vessel by histology” value ([2]; 12 h in LR, 10 min reperfusion, db-cAMP 2 mM where added) was “no PMNs”. For the same molecule, the MCC [3] was greater than 4 mM.
In the case of `NNc1nncc2ccccc12` [hydralazine], the “pulmonary artery flushing time” value (lung [4]; 30 mL at constant pressure during harvest) is given as 69.3 ± 4.5 s, the recipient survival (lung [4]; 6 h in EC, 30 min, supplements NTG 0.1 mg/mL, hydralazine 0.02 μg/mL) is given as 33% and the “effect on lung preservation” value (lung [5]) is given as “not proven beneficial in lung preservation”.
For nitric oxide [NO], the “minimal concentration relaxing vascular smooth muscle” value (vascular smooth muscle) is given as “less than 15 nM”.
